Publication PMC10354055, “An optimized Nurr1 agonist provides disease-modifying effects in Parkinson’s disease models” (Nature Communications, 2023)
Several values for one entry are separate records, joined by “and”; a condition that tells them apart may be missing. Identical values can stand only once.

What was measured:
MPTP-induced male mice [1] = test: AIMs scoring (dyskinesia), MPTP-induced PD model mice; type: in vivo, mouse; settings: for abnormal involuntary movements (AIMs) (in words): CQ 40, 4A7C-301 5, L-DOPA 50 mg/kg/day, i.p.; for AIMs score (20-140 min): Figure 4f, MPTP-induced mice, individual animal values
Method: (§1) Male C57BL/6 J mice (8–10 weeks, 25–30 g; Jackson Laboratories) were randomly assigned to 5 groups including vehicle (VEH), MPTP, MPTP + L-DOPA, MPTP + CQ and MPTP + 4A7C-301 (n ≥ 7 for each group). MPTP (Sigma-Aldrich) was intraperitoneally (i.p.) injected (30 mg/kg) for 5 days (Day 1-5). Different dosages of CQ (20, 40, and 80 mg/kg) and 4A7C-301 (1, 5, 20 mg/kg) were first tested to determine the effective dose window, then 40 and 5 mg/kg doses were finally selected for CQ and 4A7C-301 respectively to show the most prominent effects. CQ or 4A7C-301 was dissolved in PBS and administrated (i.p.) for 16 days starting with MPTP injection (Day 1-16). To test dyskinetic involuntary behavior, an L-DOPA injected group was included, which received 50 mg/kg of L-DOPA and 15 mg/kg of benserazide (Sigma-Aldrich) (i.p.) for 16 days (Day 1–16). All compounds were administered 6 h post-MPTP injection to avoid any effect of compounds on the MPTP metabolism in the brain. Motor and non-motor related behavior tests were performed on the following days as described in Fig. 4a in an assessor- and observer-blinded fashion. Pre-training and baseline setup for motor-related behaviors were performed 3 days prior to the injections. Mice were sacrificed and subjected to immunohistochemistry. Mice were housed at the Animal Care Facilities of McLean Hospital under a 12-h light/12-h dark cycle, ambient temperature and humidity. Animals were handled in accordance with McLean Hospital’s Institutional Animal Care and Use Committee (Protocol #: 2015N000002) and followed National Institutes of Health guidelines.
Abnormal involuntary movements (AIMs) were scored using the developed mouse dyskinesia rating scale as described in Sebastianutto et al.. Briefly, 4 mice were recorded simultaneously with a Swann HD Security System (B&H Photo-Video Inc.) for 2 min per session, every 20 min during the 140 min following drug injections (i.e., total 7 sessions), on every other or third day (Day 2, 4, 7, 9, 11, 13, and 16). Dyskinetic movements were scored for 3 subtypes of basic AIMs including axial, forelimb and orolingual AIMs, based on the severity scale from 0 to 4 which measures the duration of AIMs (0 = no dyskinesia; 1 = display dyskinesia for <50% of the observation time; 2 = display dyskinesia for >50% of the observation time; 3 = display dyskinesia for the entire observation period but ceased upon external stimuli; 4 = display continuous and unceasing dyskinesia). To get a better and more sensitive validation of mice dyskinesia, we included an amplitude AIMs score, which rates the degree of deviation of body part or muscle position from its resting position on a 0-4 scale as previously described. Finally, global AIMs score was calculated by multiplying basic AIMs and amplitude AIMs scores for each subtype on each session. Data points were plotted as the grand total of individual AIMs score on each testing day.

MN9D cells [2] = test: Cell viability, MTT reduction, MPP+-treated MN9D cells; type: cell-based, mouse
Method: Cell viability was determined using 3-(4,5-dimethylthiazol-2-yl)-2,5-diphenyltetrazolium bromide (MTT) as previously described[60]. Briefly, cells were incubated with 5 mg/ml of MTT (Sigma-Aldrich) solution for 3.5 h at 37 °C. MTT formazan crystals were dissolved in 10 times the volume of MTT solvent (4 mM HCl and 0.1% Nonidet P-40 in isopropanol) and the absorbance from the generated blue formazan was measured at 570 nm after 15 min incubation at room temperature. Cell viability was calculated as a percentage (%) of MTT reduction relative to vehicle control.

MN9D cells [3] = test: Dopaminergic gene expression (TH, DAT, AADC, VMAT2, c-Ret), qRT-PCR, MN9D cells with MPP+; type: cell-based, mouse; settings: for dopaminergic gene expression (in words): MN9D, decreased by MPP+; for Relative TH mRNA expression (fold of Cont.): Fig. S5a; for Relative DAT mRNA expression (fold of Cont.): Fig. S5b; for Relative AADC mRNA expression (fold of Cont.): Fig. S5c; for Relative c-Ret mRNA expression (fold of Cont.): Fig. S5e; for Relative VMAT mRNA expression (fold of Cont.): Fig. S5d
Method: Total RNA was extracted using the GeneJET RNA Purification Kit (Thermo Fisher Scientific) and 100 ng of RNA was subjected to cDNA synthesis using Invitrogen Superscript cDNA Synthesis Kit (Invitrogen) according to the manufacturer’s protocol. qRT-PCR was performed using a CFX Connect Real-Time System (Bio-Rad) in a 20 μl volume mixture containing 2X SsoAdvanced Universal SYBR Green Supermix (Bio-Rad), 100 ng/μl of forward and reverse primers, and 1 μl of cDNA sample. Gene expression levels were quantified by the 2^∆∆CT method (Ct of target gene—Ct of glyceraldehyde-3-phosphate dehydrogenase (GAPDH). The following primers were used for qRT-PCR: TH forward: 5′-[…]-3′, reverse: 5′-[…]-3′; DAT forward: 5′-[…]-3′, reverse: 5′-[…]-3′; AADC forward: 5′-[…]-3′, reverse: 5′-[…]-3′; VMAT2 forward: 5′-[…]-3′, reverse: 5′-[…]-3′; c-Ret forward: 5′-[…]-3′, reverse: 5′-[…]-3′; TNFα forward: 5′-[…]-3′; reverse: 5′-[…]-3′; GAPDH, forward 5′-[…]-3′, reverse 5′-[…]-3′.

MPTP-induced male mice [4] = test: Cylinder test, MPTP-induced PD model mice; type: in vivo, mouse; settings: for Number of rearing: Figure 4d, MPTP-induced mice, individual animal values
Method: as §1, with “MPTP” for “Male C57BL/6 J mice (8–10 weeks, 25–30 g; Jackson Laboratories) were randomly assigned to 5 groups including vehicle (VEH), MPTP, MPTP + L-DOPA, MPTP + CQ and MPTP + 4A7C-301 (n ≥ 7 for each group). MPTP”, “Different dosages of CQ (20, 40, and 80 mg/kg) and 4A7C-301 (1, 5, 20 mg/kg) were first tested to determine the effective dose window, then 40 and 5 mg/kg doses were finally selected for CQ and 4A7C-301 respectively to show the most prominent effects. CQ or 4A7C-301 was dissolved in PBS and administrated (i.p.) for 16 days starting with MPTP injection (Day 1-16).” left out
Mice were placed in a transparent plastic cylinder (15.5 cm high, 12.7 cm diameter) with a mirror behind it. Spontaneous activity was recorded and measured as counting the number of rearing events for 3 min session. A rear was considered only when the mouse touched the wall of the cylinder with its forelimb paws while standing on its hindlimbs (vertical movement) to count meaningful physiological movements.

[5] = Fig. S3e, MPP+, Control, CQ 100 µM, 4A7C-301 1 µM
[6] = Fig. S3e, MPP+, Nurr1 KD, CQ 100 µM, 4A7C-301 1 µM
[7] = Fig. S3e, MPP+, Nurr1 OE, CQ 100 µM, 4A7C-301 1 µM

SMILES	abnormal involuntary movements (AIMs) (in words) (MPTP-induced male mice [1])	AIMs score (20-140 min) (MPTP-induced male mice [1]; day 2)	AIMs score (20-140 min) (MPTP-induced male mice [1]; day 4)	AIMs score (20-140 min) (MPTP-induced male mice [1]; day 7)	AIMs score (20-140 min) (MPTP-induced male mice [1]; day 9)	AIMs score (20-140 min) (MPTP-induced male mice [1]; day 11)	AIMs score (20-140 min) (MPTP-induced male mice [1]; day 13)	AIMs score (20-140 min) (MPTP-induced male mice [1]; day 16)	MTT reduction (%) (MN9D cells [2]; Fig. S3c, with MPP+, 1 µM)	MTT reduction (%) (MN9D cells [2]; Fig. S3c, with MPP+, 5 µM)	MTT reduction (%) (MN9D cells [2]; Fig. S3c, with MPP+, 10 µM)	MTT reduction (%) (MN9D cells [2]; [5])	MTT reduction (%) (MN9D cells [2]; [6])	MTT reduction (%) (MN9D cells [2]; [7])	dopaminergic gene expression (in words) (MN9D cells [3])	Number of rearing (MPTP-induced male mice [4])	further results
CCN(CC)CCCC(C)Nc1ccnc2cc(Cl)ccc12 (centres unmarked) [CQ, chloroquine]	did not induce any detectable AIMs	0	0	0	0	0	0	0	53.8043% and 53.2609% and 51.6304%	55.4348% and 56.5217%	57.6087% and 55.9783% and 57.0652%	62.8947% and 66.3158% and 61.0526% and 60.2632%	34.7368% and 29.4737% and 30.7895% and 32.6316%	86.0526% and 90.2105% and 84.3158% and 89.4737%	significantly rescued	9 and 22 and 80 and 21 and 16 and 37 and 89 and 30 and 61	MTT reduction (%) (MN9D cells [2]; Fig. S3c, with MPP+, 50 µM): 61.413% and 59.7826%; MTT reduction (%) (MN9D cells [2]; Fig. S3c, with MPP+, 100 µM): 62.5% and 61.413% and 64.6739%
CCN1CCN(c2cc(N3CCN(CC)CC3)nc(NCCNc3ccnc4cc(Cl)ccc34)n2)CC1 [4A7C-301, N^1-(4,6-bis(4-ethylpiperazin-1-yl)pyrimidin-2-yl)-N^2-(7-chloroquinolin-4-yl)ethane-1,2-diamine]	did not induce any detectable AIMs	0	0	0	0	0	0	0	63.0435% and 64.1304% and 62.5%	63.587% and 61.9565% and 64.6739%	63.587% and 61.9565%	68.2632% and 62.1053% and 68.2105% and 63.0526%	31.8421% and 30.5263% and 31.5789% and 29.7368%	85.4211% and 91.8947% and 89.4737% and 88.2632%	significantly rescued	34 and 51 and 29 and 33 and 22 and 71 and 46	MTT reduction (%) (MN9D cells [2]; Fig. S1f, with MPP+, conc. 0.1 µM, replicates): 55.1664% and 54.641% and 56.7426%; MTT reduction (%) (MN9D cells [2]; Fig. S1f, with MPP+, conc. 0.5 µM, replicates): 58.8441% and 58.3187% and 60.4203%; MTT reduction (%) (MN9D cells [2]; Fig. S1f, with MPP+, conc. 1 µM, replicates): 62.5219% (2×) and 61.4711%; MTT reduction (%) (MN9D cells [2]; Fig. S1f, with MPP+, conc. 5 µM, replicates): 60.9457% and 62.5219% and 63.0473%; MTT reduction (%) (MN9D cells [2]; Fig. S1f, with MPP+, conc. 10 µM, replicates): 61.9965% and 61.4711% and 63.0473%; MTT reduction (%) (MN9D cells [2]; Fig. S3c, with MPP+, 0.1 µM): 54.8913% and 57.0652% and 55.4348%; MTT reduction (%) (MN9D cells [2]; Fig. S3c, with MPP+, 0.5 µM): 59.2391% and 59.7826% and 60.3261%; Relative TH mRNA expression (fold of Cont.) (MN9D cells [3]; w/ MPP+): 1.331 fold of Cont. and 1.238 fold of Cont. and 1.4297 fold of Cont.; Relative TH mRNA expression (fold of Cont.) (MN9D cells [3]; w/o MPP+): 2.626 fold of Cont. and 3.055 fold of Cont. and 2.8325 fold of Cont.; Relative DAT mRNA expression (fold of Cont.) (MN9D cells [3]; w/ MPP+): 1.51 fold of Cont. and 1.43 fold of Cont. and 1.594 fold of Cont.; Relative DAT mRNA expression (fold of Cont.) (MN9D cells [3]; w/o MPP+): 3.527 fold of Cont. and 3.949 fold of Cont. and 3.732 fold of Cont.; Relative AADC mRNA expression (fold of Cont.) (MN9D cells [3]; w/ MPP+): 1.175 fold of Cont. and 1.144 fold of Cont. and 1.206 fold of Cont.; Relative AADC mRNA expression (fold of Cont.) (MN9D cells [3]; w/o MPP+): 1.767 fold of Cont. and 1.615 fold of Cont. and 1.689 fold of Cont.; Relative c-Ret mRNA expression (fold of Cont.) (MN9D cells [3]; w/ MPP+): 0.9952 fold of Cont. and 1.121 fold of Cont. and 0.8833 fold of Cont.; Relative c-Ret mRNA expression (fold of Cont.) (MN9D cells [3]; w/o MPP+): 1.827 fold of Cont. and 2.268 fold of Cont. and 2.036 fold of Cont.; Relative VMAT mRNA expression (fold of Cont.) (MN9D cells [3]; w/ MPP+): 1.0229 fold of Cont. and 0.9814 fold of Cont. and 1.066 fold of Cont.; Relative VMAT mRNA expression (fold of Cont.) (MN9D cells [3]; w/o MPP+): 2.085 fold of Cont. and 1.956 fold of Cont. and 2.019 fold of Cont.; concentration for similar effect, times lower than CQ (MN9D cells [3]; dopaminergic gene expression, MN9D and VM primary cells): 20–40 times; motor function, cylinder test (in words) (MPTP-induced male mice [4]; CQ 40, 4A7C-301 5, L-DOPA 50 mg/kg/day, i.p., 16 days): significantly rescued
